In patent US20160287553A1, “TRANSLATION INHIBITORS IN HIGH-DOSE CHEMO- AND/OR HIGH-DOSE RADIOTHERAPY” (DEUTSCHES KREBSFORSCHUNGSZENTRUM, priority 2013, published 2016):

What was measured:
non-malignant cells = assay: Fold change in cell death on raising the Etoposide dose, non-malignant cells (FIG. 9a-b); type: cell-based; settings: Etoposide from 6.25 μM to 50 μM, 24 h, solvent (FIG. 9a)
Description: (§1) (a) Cells from (b) were grouped into malignant and non-malignant cells. Shown are means of three independent experiments. Abbreviations; HSPCs=hematopoietic stem and progenitor cells. (c-d) Malignant and non-malignant cells were exposed to ionizing radiation (IR) in the presence of 75 nM Roc-A or solvent (DMSO) and cell death was determined after 24 h by DNA fragmentation. Depicted is the fold-change in cell death that was measured when doses of IR were increased from 2 Gy to 10 Gy. (c) Cells from (d) were grouped into malignant and non-malignant cells. Shown are means of three independent experiments.
(§2) DNA fragmentation was determined by FACS.
(§3) Roc-A specifically prevents the cause of chemotherapeutic and radiation-induced side-effects, i.e., the death of healthy cells. […] Consequently, high-dose therapy is not possible, as side effects would be too high.

Peripheral blood T cells = assay: Etoposide-induced apoptotic cell death of T cells (DNA fragmentation, AnnexinV, FSC/SSC); settings: for Protection of normal T cells from Etoposide-induced cell death by Roc-derivatives: 50 μM Etoposide, 75 nM Roc-derivative, 24 h (FIG. 6b)
Description: The human malignant cell lines EU-3 (acute lymphoblastic leukemia), DND-41 (T cell leukemia), Hut-78 (T cell lymphoma), SKW6.4 (B cell leukemia), Reh (acute lymphoblastic leukemia), IM-9 (Chronic myeloid leukemia), HL-60 (promyelocytic leukemia), L1236 (Hodgkin's lymphoma) and NCI-H209 (small cell lung cancer) were cultured at 37° C. with 5% CO2 in RPMI-1640 medium (Sigma-Aldrich, Munich, Germany) supplemented with 10% FCS, 100 U/ml Penicillin (Sigma-Aldrich, Munich, Germany) and 100 μg/ml Streptamycin (Sigma-Aldrich, Munich, Germany) SCLC-21H cells (small cell lung cancer) were cultured in DMEM medium (Sigma-Aldrich, Munich, Germany) supplemented with 10% FCS. Peripheral blood T lymphocytes were isolated as previously described (Klas et al., Int Immunol. 1993; 5: 625-630). B lymphocytes and NK cells were isolated by magnetic activated cell sorting using “B cell isolation kit II” (Miltenyi Biotech, Bergisch Gladbach, Germany) and “NK cell isolation kit, human” (Miltenyi Biotech, Bergisch Gladbach, Germany), respectively, according to the manufacturer's instructions. Human neutrophils were separated from peripheral blood mononuclear cells by Ficoll-Paque density centrifugation, followed by incubation in 1.05% dextran for 30 min at room temperature. Remaining erythrocytes were lysed by resuspension in ice-cold 0.2% sodium chloride solution. After 1 min ice-cold 1.6% sodium-chloride solution was added and lysis was stopped by addition of PBS and neutrophils were resuspended in medium at a concentration of 2×10^6 cells/ml. Human primary cardiomyocytes were purchased from PromoCell (Heidelberg, Germany) and cultured in Myocyte Growth Medium (PromoCell, Heidelberg, Germany). Remaining primary human cells were cultured in RPMI-1640 medium with the same conditions described above.
Apoptotic cell death was determined by AnnexinV staining, cellular forward scatter/side scatter (FSC/SSC) profile, or DNA fragmentation. For AnnexinV staining, 2×10^5 cells were treated with different drugs for indicated time periods, washed with AnnexinV binding buffer (0.01 M Hepes, 0.14 M NaCl, 2.5 mM CaCl2), and stained with AnnexinV-FITC antibody (Immunotools, Friesoythe, Germany) and 7-amino-actinomycin D (Sigma-Aldrich, Munich, Germany) for 30 min at 4° C. The amount of AnnexinV positive cells was determined by FACS measurement. DNA fragmentation was determined according to the method of Nicoletti (Nicoletti et al., J Immunol Methods. 1991; 139: 271-279). Briefly, 2×10^5 cells were treated as indicated, washed with PBS and lysed in Nicoletti buffer (0.1% sodium citrate, 0.1% Triton X-100, 50 μg/ml propidium iodide). DNA fragmentation was determined by FACS. Apoptosis-like cells were determined by forward scatter and side scatter (FSC/SSC) index. Specific DNA fragmentation/specific AnnexinV positive cells/specific apoptosis was calculated as follows: (percentage of experimental DNA fragmentation (or Annexin V positive cells or apoptosis)−percentage of spontaneous DNA fragmentation (or Annexin V positive cells or apoptosis)/(100−percentage of spontaneous DNA fragmentation (or Annexin V positive cells or apoptosis))×100.

malignant cells = assay: Fold change in cell death on raising the Etoposide dose, malignant cells (FIG. 9a-b); type: cell-based; settings: Etoposide from 6.25 μM to 50 μM, 24 h, solvent (FIG. 9a)
Description: as §1, §2, §3

ERK = settings: Polier et al., op. cit.; cited from earlier work
[1] = test system: protein synthesis in T cells; assay: Translation assay: [35S]methionine incorporation in T cells; type: cell-based, human; settings: T cells (FIG. 6b)
Description: The relative amount of protein synthesis was determined by measuring the amount of incorporation of ^35S-methionine into the protein. Briefly, cells were pre-cultured in methionine-free medium (supplemented with 10% dialyzed FCS) for 3 h, followed by incubation with 3.5 μCi of ^35S-methionine-labeling mix (PerkinElmer, Waltham, Mass., USA) per 8×10^5 cells for 6 h as indicated. After the treatment, cells were washed twice with ice-cold PBS and lysed in RIPA buffer. 50 μl of each lysate were added to 1 ml of Liquid Scintillation Cocktail solution (Beckman Coulter, Brea, Calif., USA) and the amount of incorporated radioactivity was determined by liquid scintillation counting.
Roc-A has been well documented to inhibit protein translation (Polier et al., Chem Biol. 2012; 19: 1093-1104; Sadlish et al., ACS Chem Biol. 2013; doi:10.1021/cb400158t; Bleumink et al., Cell Death Differ. 2011; 18: 362-370; Cencic et al., PloS one. 2009; 4: e5223). Thus, we expected that Roc-A-mediated suppression of genotoxin-induced p53 upregulation may be regulated by inhibition of p53 protein synthesis.

p53 = p53 protein expression by immunoblot; type: cell-based, human; settings: T cells, 100 nM Bortezomib
Description: Immunoblot analysis was carried out as previously described (Polier et al., Chem Biol. 2012; 19: 1093-1104). Briefly, 4-20×10^6 cells were treated with different reagents as indicated and lysed in RIPA buffer (50 mM Tris HCl, 137 mM NaCl, 0.5% Na Deoxycholate, 1% Triton X-100, 0.1% SDS, protease inhibitors). Proteins were separated by SDS-PAGE and transferred to a nitrocellulose membrane (Amersham Biosciences, Little Chalfon, UK) using a semi-dry blotting approach. The following antibodies were used: p53 (DO-1) antibody was purchased from Santa Cruz Biotechnology (Heidelberg, Germany). Tubulin and actin (A5441) antibodies were purchased from Sigma-Aldrich (St. Louis, USA).
The transcription factor p53 is a major regulator of DNA damage-induced apoptosis (Lowe et al., Cell. 1993; 74: 957-967). Therefore, we investigated the effect of Roc-A on the expression level of p53.
p53 protein expression can be regulated at the level of transcription, translation, and ubiquitination-mediated degradation (Marine & Lozano, Cell Death Differ. 2010; 17: 93-102). It has been shown that upon DNA damage p53 undergoes post-translational modifications leading to its deubiquitination and, thus, stabilization (Lee & Gu, Cell Death Differ. 2010; 17: 86-92). To investigate whether Roc-A could decrease p53 stability, we treated T cells with the proteasome inhibitor Bortezomib to block proteasome-mediated degradation.

Primary human T cells = assay: Ionizing radiation (IR)-induced apoptosis in T cells; type: cell-based; settings: 24 h, increasing doses of IR, different concentrations of FL3 (FIG. 8b)
Description: as §2
The radioprotective effect mediated by Roc-A was the highest when cells were treated with Roc-A 1 h before radiation of cells (FIG. 1d). However, when cells were treated 4 h after radiation, the radioprotective effect was still higher than 50% (FIG. 1d).

Row | Compound | Protection of normal T cells from Etoposide-induced cell death by Roc-derivatives (Peripheral blood T cells) | Inhibitory effect on ERK activity / activation (ERK) | Inhibition of [35S]methionine incorporation (protein translation) [1] | other results
1 | COc1cc([C@@H]2c3cc4c(cc3[C@@H](O[C@@H]3O[C@@H]5CO[C@@H](C)O[C@H]5[C@H](O)[C@H]3O)[C@H]3COC(=O)[C@H]23)OCO4)cc(OC)c1O [Etoposide, reference compound] | – | – | – | Increase in Etoposide-induced cell death (non-malignant cells): up to 3 fold; Cell death of normal T cells by the genotoxin (Peripheral blood T cells; 24 h, increasing concentrations of Etoposide): caused cell death of normal T cells; Increase in Etoposide-induced cell death (malignant cells): approximately 3 fold
2 | COc1cc(OC)c2c(c1)OC1(c3ccc4c(c3)OCO4)C(c3ccccc3)CC(=O)C21O (centres unmarked) [Roc-AR, 1-oxo-40-demethoxy-30,40-methylenedioxyrocaglaol] | different levels of protection | inhibit ERK activation with different efficacies | inhibited [^35S]methionine incorporation at different degrees | –
3 | COc1cc(OC)c2c(c1)OC1(c3ccc(OC)c(O)c3)C(c3ccccc3)C(C(=O)N(C)C)C(OC(C)=O)C21O (centres unmarked) [Roc-I, C-1-O-acetyl-30-hydroxy-rocaglamide] | did not protect T cells | do not show any or very little inhibitory effects on ERK activity | did not inhibit protein translation | –
4 | COC(=O)[C@H]1[C@@H](O)[C@@]2(O)c3c(OC)cc(OC)cc3O[C@@]2(c2ccc(OC)c(O)c2)[C@@H]1c1ccccc1 [Roc-J, 30-hydroxyaglafoline] | different levels of protection | inhibit ERK activation with different efficacies | inhibited [^35S]methionine incorporation at different degrees | –
5 | COC(=O)C1C(O)C2(O)c3c(OC)cc(OC)cc3OC2(c2ccc3c(c2)OCO3)C1c1ccccc1 (centres unmarked) [Roc-AF, 30,40-methylendioxy-methylrocaglate] | did not protect T cells | do not show any or very little inhibitory effects on ERK activity | did not inhibit protein translation | –
6 | CNC(=O)[C@H]1[C@@H](O)[C@@]2(O)c3c(OC)cc(OC)cc3O[C@@]2(c2ccc(OC)cc2)[C@@H]1c1ccccc1 [Roc-Q, demethylrocaglamide] | different levels of protection | inhibit ERK activation with different efficacies | inhibited [^35S]methionine incorporation at different degrees | –
7 | CC(C)C[C@H](NC(=O)[C@H](Cc1ccccc1)NC(=O)c1cnccn1)B(O)O [Bortezomib, reference compound] | – | – | – | Interference with Roc-A block of Etoposide-induced p53 upregulation (p53; 50 μM Etoposide, 75 nM Roc-A, 4 h (FIG. 6a)): did also not interfere with the ability of Roc-A to block Etoposide-induced p53 upregulation; p53 level on proteasome inhibition (p53; absence of Roc-A (FIG. 6a)): led to an increase in p53; p53 level on proteasome inhibition (p53; presence of 75 nM Roc-A (FIG. 6a)): could not increase p53
8 | COc1ccc([C@@]23Oc4cc(OC)cc(OC)c4[C@]2(O)[C@H](OC(C)=O)[C@H](C(=O)N(C)C)[C@H]3c2ccccc2)cc1 [Roc-AB, 1-O-acetyl-rocaglamide] | different levels of protection | inhibit ERK activation with different efficacies | inhibited [^35S]methionine incorporation at different degrees | –
9 | COC(=O)C1C(OC(C)=O)C2(O)c3c(OC)cc(OC)cc3OC2(c2ccc(OC)cc2)C1c1ccccc1 (centres unmarked) [Roc-AA, C-1-O-acetyl-methylrocaglate] | did not protect T cells | do not show any or very little inhibitory effects on ERK activity | did not inhibit protein translation | –
10 | COc1cc(OC)c2c(c1)O[C@@]1(c3ccc(Br)cc3)[C@H](c3ccccc3)C[C@@H](O)[C@@]21O (racemic) [FL3, racemic bromo-demethoxy-rocaglaol] | – | – | – | Protection of T cells from IR-induced apoptotic cell death by FL3 (Primary human T cells): protects T cells; Protection of T cells from Etoposide-induced apoptotic cell death by FL3 (Peripheral blood T cells; 24 h, increasing doses of Etoposide, different concentrations of FL3 (FIG. 8a)): protects T cells
